Data: patent US12668600B2 (Kumquat Biosciences Inc., priority 2023, dated 2026)

Tests used:
Format in all cases: biochemical
[1] = target: T1, KRAS G12D (Homo sapiens, UniProt P01116, G12D); experiment: HTRF KRAS-SOS1 interaction assay, KRAS G12D; conditions: binned ≤2 μM / >2 μM, read-out: Inhibition of KRAS G12D (IC50)
T1 construct: made in house; host or cells: E. coli, e.g. BL21 (DE3)
In short: (§1)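 GST-KRAS + anti-GST-Eu; His-hSOS1 + anti-6His-XL665; cpd in DMSO, duplicate, 10–0.01 μM; ~10 min incubation; HTRF ex 337/em 620, 665 nm; IC50 fitted on 665/620 ratio.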

[2] = target: T2, KRAS WT (Homo sapiens, UniProt P01116); experiment: HTRF KRAS-SOS1 interaction assay, wildtype KRAS; conditions: binned ≤2 μM / >2 μM, read-out: Inhibition of KRAS WT (IC50)
T2 construct: made in house; host or cells: E. coli, e.g. BL21 (DE3)
T2 sequence (P01116 1-188 isoform P01116-2): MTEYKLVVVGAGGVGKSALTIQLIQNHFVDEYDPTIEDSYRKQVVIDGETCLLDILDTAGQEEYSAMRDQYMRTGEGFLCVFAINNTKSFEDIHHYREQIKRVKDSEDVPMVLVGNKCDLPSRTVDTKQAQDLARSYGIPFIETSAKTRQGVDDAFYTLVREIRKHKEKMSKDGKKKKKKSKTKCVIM
In short: as §1

[3] = target: T3, KRAS G12V (Homo sapiens, UniProt P01116, G12V); experiment: HTRF KRAS-SOS1 interaction assay, KRAS G12V; conditions: binned ≤2 μM / >2 μM, read-out: Inhibition of KRAS G12V (IC50)
T3 construct: made in house; host or cells: E. coli, e.g. BL21 (DE3)
T3 sequence (P01116 1-188 isoform P01116-2 G12V): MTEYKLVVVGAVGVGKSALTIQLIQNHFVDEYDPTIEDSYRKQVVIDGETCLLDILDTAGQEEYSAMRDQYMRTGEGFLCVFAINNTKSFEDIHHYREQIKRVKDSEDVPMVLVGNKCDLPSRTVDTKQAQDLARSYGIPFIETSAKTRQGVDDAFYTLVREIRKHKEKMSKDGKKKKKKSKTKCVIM
In short: as §1

[4] = target: T4, KRAS G12S (Homo sapiens, UniProt P01116, G12S); experiment: HTRF KRAS-SOS1 interaction assay, KRAS G12S; conditions: binned ≤2 μM / >2 μM, read-out: Inhibition of KRAS G12S (IC50)
T4 construct: made in house; host or cells: E. coli, e.g. BL21 (DE3)
T4 sequence (P01116 1-188 isoform P01116-2 G12S): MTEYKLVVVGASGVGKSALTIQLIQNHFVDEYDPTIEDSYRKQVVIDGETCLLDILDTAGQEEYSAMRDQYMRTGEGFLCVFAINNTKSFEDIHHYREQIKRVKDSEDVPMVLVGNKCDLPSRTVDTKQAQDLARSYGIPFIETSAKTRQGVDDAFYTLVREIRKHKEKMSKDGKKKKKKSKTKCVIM
In short: as §1

Measured: IC50

T1 sequence (P01116 1-188 isoform P01116-2 G12D): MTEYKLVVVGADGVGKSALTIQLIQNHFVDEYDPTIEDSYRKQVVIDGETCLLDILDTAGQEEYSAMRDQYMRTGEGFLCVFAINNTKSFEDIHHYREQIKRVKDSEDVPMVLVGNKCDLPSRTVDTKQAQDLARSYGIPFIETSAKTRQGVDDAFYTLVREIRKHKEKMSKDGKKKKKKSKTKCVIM

C[C@H](c1cc(C(F)(F)F)cnc1N)N1CCOc2c(Cl)c(-c3ccc(F)c4sc(N)c(C#N)c34)c(F)c3nc(OC[C@@]45CCCN4C[C@H](F)C5)nc1c23 [Compound 869, 2-amino-4-(4-((R)-1-(2-amino-5-(trifluoromethyl)pyridin-3-yl)ethyl)-8-chloro-10-fluoro-2-(((2R,7aS)-2-fluorotetrahydro-1H-pyrrolizin-7a(5H)-yl)methoxy)-5,6-dihydro-4H-[1,4]oxazepino[5,6,7-de]quinazolin-9-yl)-7-fluorobenzo[b]thiophene-3-carbonitrile]
≤ 2 µM: all assays above
